# Values quoted from earlier work as cited in PubChem BioAssay AID1259409 (Chemical Carcinogenesis Research Information System (CCRIS), 2018).
# System: rodent chemically induced tumor inhibition, incidence and multiplicity
# Assay: CCRIS tumor inhibitor studies
# Conditions: Route [Inhibitor]: ORAL, Species: RAT; for tumour outcome (control, treated, inhibition, significance): Promoter: NONE USED
smiles,measurement,setting,value
CC(=O)OC/C=C(C)/C=C/C=C(C)/C=C/C1=C(C)CCCC1(C)C,outcome,"Carcinogen: N-BIS-(2-HYDROXYPROPYL)NITROSAMINE [53609-64-6], Dose [Inhibitor]: 0, 0.1% IN DIET 4 WK BEGINNING 1 WK POST CARCINOGEN DOSE (STUDY DURATION: 5 WK), Strain/Sex: F344/DUCRJ/MALE, Target Tissue: Type of Lesion: THYROID GLAND: ADENOMATOUS GROWTH PATTERN, Dose [Carcinogen]: 2800 MG/KG BW ONCE (STUDY DURATION: 5 WK), Promoter: NONE","0%, 0%, 0%, not significant"
same,"tumour outcome (control, treated, inhibition, significance)","Carcinogen: N-METHYL-N-NITROSOUREA, 684-93-5, Dose [Inhibitor]: 0, 328 MG/KG DIET FOR 88 D BEGINNING 2 D POST CARCINOGEN DOSE (STUDY DURATION: 90 D), Strain/Sex: SPRAGUE-DAWLEY/FEMALE, Target Tissue: Type of Lesion: MAMMARY GLAND: ADENOCARCINOMA, Dose [Carcinogen]: 45 MG/KG BW ONCE","100%, 73%, 27%, p<0.05"
same,"tumour outcome (control, treated, inhibition, significance)","Carcinogen: N-METHYL-N-NITROSOUREA, 684-93-5, Dose [Inhibitor]: 0, 328 MG/KG OF DIET BEGINNING 2 D POST CARCINOGEN DOSE AND CONTINUING FOR DURATION OF STUDY (STUDY DURATION: 90 D), Strain/Sex: SPRAGUE-DAWLEY/FEMALE, Target Tissue: Type of Lesion: MAMMARY GLAND: ADENOCARCINOMA, Dose [Carcinogen]: 45 MG/KG BW ONCE AT 50 D OF AGE","100%, 80%, 20%, not calculated"
same,"tumour outcome (control, treated, inhibition, significance)","Carcinogen: N-METHYL-N-NITROSOUREA, 684-93-5, Dose [Inhibitor]: 0, 328 MG/KG OF DIET FOR DURATION OF STUDY BEGINNING 1 WK PRIOR TO CARCINOGEN TREATMENT (STUDY DURATION: 117 D), Strain/Sex: SPRAGUE-DAWLEY /FEMALE, Target Tissue: Type of Lesion: MAMMARY GLAND: ADENOCARCINOMA, Dose [Carcinogen]: 50 MG/KG BW ONCE","100%, 84%, 16%, not significant"
same,"tumour outcome (control, treated, inhibition, significance)","Carcinogen: N-METHYL-N-NITROSOUREA, 684-93-5, Dose [Inhibitor]: 0.8 MMOL/KG DIET DAILY STARTING 12 D AFTER CARCINOGEN TREATMENT THROUGH ABOUT 8 MO AFTER FIRST CARCINOGEN DOSE (STUDY DU, Strain/Sex: F344/MALE, Target Tissue: Type of Lesion: COLON: ADENOCARCINOMA, Dose [Carcinogen]: 2.5 MG 1/WK FOR 2 WK","5/39 (13%), 4/29 (14%), -8%, not significant"
same,"tumour outcome (control, treated, inhibition, significance)","Carcinogen: N-METHYL-N-NITROSOUREA, 684-93-5, Dose [Inhibitor]: 0.8 MMOL/KG DIET DAILY STARTING 12 D AFTER CARCINOGEN TREATMENT THROUGH ABOUT 8 MO AFTER FIRST CARCINOGEN DOSE (STUDY DU, Strain/Sex: F344/MALE, Target Tissue: Type of Lesion: COLON: ADENOMA, Dose [Carcinogen]: 2.5 MG 1/WK FOR 2 WK","16/39 (41%), 9/29 (31%), 24%, not significant"
same,"tumour outcome (control, treated, inhibition, significance)","Carcinogen: N-METHYL-N-NITROSOUREA, 684-93-5, Dose [Inhibitor]: 1.0 MM IN DIET DAILY (328 MG/KG DIET) STARTING D 60 OF AGE UNTIL END OF STUDY (STUDY DURATION: 4 MO), Strain/Sex: SPRAGUE-DAWLEY/FEMALE, Target Tissue: Type of Lesion: MAMMARY GLAND: CARCINOMA, Dose [Carcinogen]: 2.5 MG/100 G BODY WEIGHT IN 0.9% NACL SOLUTION ADMINISTERED AT D 50 AND 57 OF AGE","87%, 54%, 38%, p<0.01"
same,"tumour outcome (control, treated, inhibition, significance)","Carcinogen: N-METHYL-N-NITROSOUREA, 684-93-5, Dose [Inhibitor]: 1 MMOL/KG DIET DAILY STARTING 3 D AFTER LAST CARCINOGEN DOSE THROUGH END OF STUDY (STUDY DURATION: 129 D), Strain/Sex: SPRAGUE-DAWLEY/FEMALE, Target Tissue: Type of Lesion: MAMMARY GLAND: TUMOR, Dose [Carcinogen]: 50 MG/KG BW AT BOTH 50 AND 57 D OF AGE","17/17 (100%), 12/18 (67%), 33%, p<0.001"
same,"tumour outcome (control, treated, inhibition, significance)","Carcinogen: N-METHYL-N-NITROSOUREA, 684-93-5, Dose [Inhibitor]: 1 MMOL/KG DIET DAILY STARTING 3 D AFTER LAST CARCINOGEN DOSE THROUGH END OF STUDY (STUDY DURATION: 182 D), Strain/Sex: SPRAGUE-DAWLEY/FEMALE, Target Tissue: Type of Lesion: MAMMARY GLAND: TUMOR, Dose [Carcinogen]: 15 MG/KG BW AT BOTH 50 AND 57 D OF AGE","12/40 (30%), 5/39 (13%), 57%, not significant"
same,"tumour outcome (control, treated, inhibition, significance)","Carcinogen: N-METHYL-N-NITROSOUREA, 684-93-5, Dose [Inhibitor]: 2 MMOL/KG DIET DAILY STARTING 3 D AFTER LAST CARCINOGEN DOSE THROUGH END OF STUDY (STUDY DURATION: 129 D), Strain/Sex: SPRAGUE-DAWLEY/FEMALE, Target Tissue: Type of Lesion: MAMMARY GLAND: TUMOR, Dose [Carcinogen]: 50 MG/KG BW AT BOTH 50 AND 57 D OF AGE","17/17 (100%), 2/16 (13%), 87%, p<0.001"
same,"tumour outcome (control, treated, inhibition, significance)","Carcinogen: N-METHYL-N-NITROSOUREA, 684-93-5, Dose [Inhibitor]: 2 MMOL/KG DIET DAILY STARTING 3 D AFTER LAST CARCINOGEN DOSE THROUGH END OF STUDY (STUDY DURATION: 182 D), Strain/Sex: SPRAGUE-DAWLEY/FEMALE, Target Tissue: Type of Lesion: MAMMARY GLAND: TUMOR, Dose [Carcinogen]: 15 MG/KG BW AT BOTH 50 AND 57 D OF AGE","12/40 (30%), 0/40 (0%), 100%, p<0.001"
same,"tumour outcome (control, treated, inhibition, significance)","Carcinogen: N-METHYL-N-NITROSOUREA, 684-93-5, Dose [Inhibitor]: 300 MG/KG OF DIET DAILY STARTING 7 D AFTER CARCINOGEN TREATMENT AND CONTINUING FOR DURATION OF STUDY (STUDY DURATION: 13, Strain/Sex: SPRAGUE-DAWLEY/FEMALE, Target Tissue: Type of Lesion: MAMMARY GLAND: ADENOCARCINOMA, Dose [Carcinogen]: 50 MG/KG BW IN 0.9% SALINE ONCE AT 50 D OF AGE","25/25 (100%), 23/25 (92%), 8%, not significant"
same,"tumour outcome (control, treated, inhibition, significance)","Carcinogen: N-METHYL-N-NITROSOUREA, 684-93-5, Dose [Inhibitor]: 328 MG/KG DIET DAILY FOR 4 MO STARTING 10 D AFTER START OF CARCINOGEN TREATMENT AND CONTINUING FOR DURATION OF STUDY (ST, Strain/Sex: SPRAGUE-DAWLEY/FEMALE, Target Tissue: Type of Lesion: MAMMARY GLAND: ADENOCARCINOMA, Dose [Carcinogen]: 2.5 MG/100 G BW IN 0.9% SALINE AND ACIDIFIED (PH 4 TO 5) WITH ACETIC ACID AT AGES 50 AND 57 D","88%, 53%, 40%, p<0.01"
same,"tumour outcome (control, treated, inhibition, significance)","Carcinogen: N-METHYL-N-NITROSOUREA, 684-93-5, Dose [Inhibitor]: 328 MG/KG IN DIET BEGINNING AT D 60 (STUDY DURATION: 129 D), Strain/Sex: SPRAGUE-DAWLEY/FEMALE, Target Tissue: Type of Lesion: MAMMARY GLAND: TUMOR, Dose [Carcinogen]: 2.5 MG/100 G AT 50 AND 57 D OF AGE","22/30 (73%), 11/30 (37%), 49%, p<0.005"
same,"tumour outcome (control, treated, inhibition, significance)","Carcinogen: N-METHYL-N-NITROSOUREA, 684-93-5, Dose [Inhibitor]: 328 MG/KG IN DIET BEGINNING AT D 60 (STUDY DURATION: 175 D), Strain/Sex: SPRAGUE-DAWLEY/FEMALE, Target Tissue: Type of Lesion: MAMMARY GLAND: TUMOR, Dose [Carcinogen]: 1.25 MG/100 G BODY WEIGHT IN 0.9% NACL SOLUTION ADMINISTERED AT D 50 AND 57 OF AGE","8/30 (27%), 3/30 (10%), 63%, p<0.01"
same,"tumour outcome (control, treated, inhibition, significance)","Dose [Inhibitor]: 3 UMOL/G DIET, Strain/Sex: SPRAGUE-DAWLEY/FEMALE, Target Tissue: Type of Lesion: LIVER: TUMOR, Dose [Carcinogen]: 1 PPM IN DIET","76%, 79%, -4%, not calculated"
same,"tumour outcome (control, treated, inhibition, significance)","Dose [Inhibitor]: 3 UMOL/G DIET, Strain/Sex: SPRAGUE-DAWLEY/MALE, Target Tissue: Type of Lesion: LIVER: TUMOR, Dose [Carcinogen]: 1 PPM IN DIET","89%, 88%, 1%, not calculated"
same,"tumour outcome (control, treated, inhibition, significance)","Dose [Inhibitor]: 30 UMOL/G DIET, Strain/Sex: SPRAGUE-DAWLEY/FEMALE, Target Tissue: Type of Lesion: LIVER: TUMOR, Dose [Carcinogen]: 1 PPM IN DIET","76%, 84%, -11%, not calculated"
same,"tumour outcome (control, treated, inhibition, significance)","Dose [Inhibitor]: 30 UMOL/G DIET, Strain/Sex: SPRAGUE-DAWLEY/MALE, Target Tissue: Type of Lesion: LIVER: TUMOR, Dose [Carcinogen]: 1 PPM IN DIET","89%, 92%, -3%, not calculated"
